Experiments:
intestinal microbiome [1] = test: Whole genome shotgun sequencing and comparative metagenomics of pig fecal samples; format: in vivo, gnotobiotic pigs populated with human adult fecal microflora; conditions: for number of bacterial taxa, Genus / number of bacterial taxa, Species / number of bacterial taxa, Strain/sub-species: per treatment group, pig fecal samples
Experimental: In order to study the ability of P3A to protect the intestinal microbiome from antibiotics-induced (e.g., ceftriaxone (CRO)-induced) damage, pig fecal samples obtained from the study described above were subjected to additional genomic analysis. Specifically, the 16S rRNA gene V1V2 region was sequenced. In addition, fecal DNA was subjected to whole genome shotgun sequencing. Shotgun sequencing was performed using Illumina HiSeq RAPID RUN, targeting 100 bp single read with the aim to achieve approximately 10-20 million reads per sample (Table 6),
These sequence data were classified taxonomically to identify microbial communities associated with the pig fecal samples. Taxonomic classification was performed using bioInformatics algorithms and curated genome databases. Briefly, raw, unassembled shotgun sequence reads were probed against curated GeneBook bacterial and viral databases using GENIUS software package for rapid identification of bacteria communities as well as their relative abundance (Hasan of al., 2014, PLoS ONE 9:e97699; Lax et al., 2014, Science 345:1048). The analyses identified 139 bacterial strains, 79 species, and 35 genera among the treatment groups (Table 7).
Comparative metagenomics analyses were performed by creating heatmaps based on the relative abundance of each bacterial strain in each sample (see FIGS. 11A and 11B) and at the bacterial genus level (see FIG. 12) using the NMF R software package (Gaujoux and Seoighe, 2010, BMC Bioinformatics, 11:367). The samples were clustered using the maximum distance function and the Ward Hierarchical Clustering algorithm. The distance function was used to measure the difference in composition between each of the samples. The clustering algorithm used the distances between each of the samples to create a dendrogram that clustered samples with similar compositions, including both the presence and absence of organisms, in the same clades.
Comparative metagenomics analyses were also performed to investigate changes in the microbiome across different treatment groups. For these analyses, the centroid classification method from the PamR package (Tibshirani of al., 2002, PNAS 99:6567), was used to compare the average frequency (absolute abundance) of each bacterial strain in the samples. The deviation of the centroid of each bacterial strain from each study group was graphed by the overall centroid of all the study groups (FIGS. 13A and 13B).
As the number of sequence reads generated from each individual sample was variable, subsamples from each sample were chosen to represent a subset of 10 million reads. This was done to avoid any bias due to different sample sizes and to enable the measurement of the absolute abundance of the bacterial organisms in the samples. Using these subsets to reduce bias, the comparative metagenomics analyses were performed as described previously for FIGS. 13A and 13B by graphing the deviation of the centroid of each bacterial strain from each study group by the overall centroid of all the study groups (FIGS. 14A and 14B).

intestinal microbiome [2] = test: P3A-mediated microbiome protection in humanized pigs, 16S rRNA sequencing of fecal DNA; format: in vivo, gnotobiotic pigs populated with human adult fecal microflora; conditions: feces collected on Day 14; antibiotics IP 50 mg/kg 4 days; P3A 75 mg/dose orally 4 times a day 7 days
in vivo = test: in vivo; design: species or system Yorkshire piglets; conditions: Yorkshire, pig; for CRO serum levels: iv, 50 mg/kg
Experimental: A total of 10 pigs were treated once a day with IV ceftriaxone (CRO; 50 mg/kg) for a total of 7 days. A cohort of 5 pigs also received oral P3A (75 mg, four times a day), starting the day before CRO treatment and extending one day after CRO was stopped, for a total of 9 days. On Day 2 of CRO treatment, serum was collected 1, 6, and 19 hours after CRO administration. Serum was assayed for CRO levels using a validated high-performance liquid chromatography assay. […] The CRO levels in the serum collected at 19 hours was below the limit of detection of the assay (0.5 ug/mL). For both sets of histograms (1 hour and 6 hours), the left bar is ceftriaxone alone and the right bar is ceftriaxone and P3A.
Another pig study was performed to determine if oral administration of P3A (i.e. SYN-004) had any effect on the systemic levels of antibiotics. For this study, ten Yorkshire piglets, approximately 2 months old and weighing approximately 20 kg were treated with intravenous ceftriaxone (CRO) at 50 mg/kg once a day for seven days. Five animals also received P3A capsules (1 capsule containing 75 mg of P3A, four times a day) beginning the day before CRO treatment and extending to one day after CRO treatment, for a total of nine days. Specifically, the P3A delayed-release capsules as described in Examples 1 and 2 were administered to the animals. On day 2, animals were anesthetized and approximately 9 mls of blood drawn from the vena cava at three timepoints, 1 hour, 6 hours, and 19 hours after CRO administration. Blood was immediately dispensed into a serum separator vacutainer tube. After coagulation, samples were centrifuged and the serum was transferred to a cryovial and stored at −80° C. until analysis. CRO in the serum samples was quantified using a validated high-performance liquid chromatography assay (Owens et al., 2001, Int. J. Antimicrobial Agents, 17:483). A standard curve for CRO was prepared in negative control (untreated) pig serum and contained 6 points ranging from 0.5 to 50 ug/mL. The assay was linear over a range of 0.5 to 50 ug/mL. […]

[3] = system: ampicillin-resistant aerobes including those of the phylum Proteobacteria; test: Plating of Day 21 feces on LB+amp plates; format: in vivo, gnotobiotic pigs populated with human adult fecal microflora; conditions: aerobic conditions, 37° C.
Experimental: Equal quantities of diluted feces collected from animals at necropsy were plated on LB+amp plates and grown under aerobic conditions at 37° C., The colonies were counted while taking into account the dilution factor.
The gastrointestinal (GI) tract of 5 day old gnotobiotic pigs was populated with human adult fecal microflora. Two days later, animals received antibiotics (clindamycin or CRO, IP, 50 mg/kg) for 4 days. P3A was delivered orally 4 times a day (75 mg/dose) for 7 days beginning the day before CRO administration. Specifically, the P3A delayed-release capsules as described in Examples 1 and 2 were administered to the animals. C. difficile (2.6×10^6 cfu) was delivered orally to all animals on Day 13. Feces were collected on Days 11, 12, 14, 18, 20 directly from the rectum using sterile cotton swabs and at necropsy on Day 21 directly from the intestinal tract. […] The levels of a specific bacterial population expected to be sensitive to CRO, but not to clindamycin, ampicillin-resistant aerobes including those of the phylum Proteobacteria, were assessed by plating equal amounts of Day 21 feces on LB+amp plates. Fecal C. difficile Toxin A and interleukin-8 (ILS) were assessed via ELISA as a measure of C. difficile infection (CDI). Intestinal tracts collected at necropsy on Day 21 were evaluated histologically for signs of CDI.

[4] = species-level centroid classification vs Group 1 (Control)

| Structure (SMILES) | number of bacterial taxa, Genus (intestinal microbiome [1]) | number of bacterial taxa, Species (intestinal microbiome [1]) | number of bacterial taxa, Strain/sub-species (intestinal microbiome [1]) | abundance of Methanobrevibacter smithii (intestinal microbiome [1]; [4]) | abundance of Turicibacter spp (intestinal microbiome [1]; [4]) | phylum-level taxonomic classification of bacteria in fecal DNA (intestinal microbiome [2]) | concentration at 19 h (in vivo) | CRO serum levels (in vivo; 1 h) | CRO serum levels (in vivo; 6 h) | bacteria levels on LB+amp plates [3] |
| --- | --- | --- | --- | --- | --- | --- | --- | --- | --- | --- |
| CO/N=C(\C(=O)N[C@@H]1C(=O)N2C(C(=O)O)=C(CSc3nc(=O)c(=O)[nH]n3C)CS[C@H]12)c1csc(N)n1 [CRO, ceftriaxone] | 32 | 70 | 102 | overabundance | underrepresentation | dysbiosis | < 500 ng/mL | 79.43 ± 12.08 µg/mL | 5.83 ± 1.15 µg/mL | at least two log lower levels |
| CCC[C@@H]1C[C@@H](C(=O)N[C@@H]([C@H]2O[C@H](SC)[C@H](O)[C@@H](O)[C@H]2O)[C@H](C)Cl)N(C)C1 [clindamycin] | 7 | 12 | 17 | – | – | – | – | – | – | – |

Reference: patent publication US12178917B2, “Beta-lactamase formulations and uses thereof” (Theriva Biologics, Inc., priority 2014, dated 2024)
